# Test results reported in PubChem BioAssay AID1963969 (Molecular Pharmacology Branch, DTP, NCI, 2024).
# pIC50: −log10 of the molar value.
# System: 817829-284-R-J1-PDC multi-cell spheroid viability
# Assay: Anticancer human tumor 817829-284-R-J1-PDC patient-derived colon adenocarcinoma cell line growth inhibition [PI3K]
# Settings: for pIC50: curve of first compound; for viability, T/C: stronger effect = lower value
# How it was run: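 Tumor cells grown as multi-cell spheroids with HUVEC endothelial cells and MSC fibroblast-like stroma were treated with targeted agents combined with inavolisib, alpelisib, duvelisib or copanlisib. Doses fell in half-log steps from near clinical Cmax, else from 10 microM. Viability was measured.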
# [1] = second compound 0.00316 µM, first compound 0.0316 µM
# [2] = second compound 0.00316 µM, first compound 0.1 µM
# [3] = second compound 0.01 µM, first compound 0.0316 µM
# [4] = second compound 0.01 µM, first compound 0.1 µM
# [5] = second compound 0.0316 µM, first compound 0.0316 µM
# [6] = second compound 0.0316 µM, first compound 0.1 µM
# [7] = second compound 0.1 µM, first compound 0.0316 µM
# [8] = second compound 0.1 µM, first compound 0.1 µM
# [9] = second compound 0.316 µM, first compound 0.0316 µM
# [10] = second compound 0.316 µM, first compound 0.1 µM
# [11] = second compound 1 µM, first compound 0.0316 µM
# [12] = second compound 1 µM, first compound 0.1 µM
# 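Further: spheroids exposed to agents for seven days before readout.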
# 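Wherever viability, T/C is given: percent of vehicle DMSO control viability which is 100%.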
compound,measurement,setting,value
C#Cc1c(F)ccc2cc(O)cc(-c3ncc4c(N5CC6CCC(C5)N6)nc(OCC56CCCN5CC(F)C6)nc4c3F)c12 (stereo unspecified) + COc1c(OCCCN2CCOCC2)ccc2c3n(c(=NC(=O)c4cnc(N)nc4)nc12)CCN3,pIC50,second compound 0.00316 µM,< 5.00
same,pIC50,second compound 0.01 µM,< 5.00
same,pIC50,second compound 0.0316 µM,5.13
same,pIC50,second compound 0.1 µM,> 7.50
same,pIC50,second compound 0.316 µM,> 7.50
same,pIC50,second compound 1 µM,> 7.50
same,"viability, T/C",[1],64.9%
same,"viability, T/C",[2],82.5%
same,"viability, T/C","second compound 0.00316 µM, first compound 0.316 µM",83.7%
same,"viability, T/C","second compound 0.00316 µM, first compound 1 µM",71.8%
same,"viability, T/C","second compound 0.00316 µM, first compound 3.16 µM",77%
same,"viability, T/C","second compound 0.00316 µM, first compound 10 µM",70.2%
same,"viability, T/C",[3],86.2%
same,"viability, T/C",[4],84%
same,"viability, T/C","second compound 0.01 µM, first compound 0.316 µM",62.9%
same,"viability, T/C","second compound 0.01 µM, first compound 1 µM",61.8%
same,"viability, T/C","second compound 0.01 µM, first compound 3.16 µM",69.6%
same,"viability, T/C","second compound 0.01 µM, first compound 10 µM",51.1%
same,"viability, T/C",[5],73.8%
same,"viability, T/C",[6],41.5%
same,"viability, T/C","second compound 0.0316 µM, first compound 0.316 µM",53.7%
same,"viability, T/C","second compound 0.0316 µM, first compound 1 µM",50.4%
same,"viability, T/C","second compound 0.0316 µM, first compound 3.16 µM",74.8%
same,"viability, T/C","second compound 0.0316 µM, first compound 10 µM",37.2%
same,"viability, T/C",[7],28.6%
same,"viability, T/C",[8],40.5%
same,"viability, T/C","second compound 0.1 µM, first compound 0.316 µM",37.6%
same,"viability, T/C","second compound 0.1 µM, first compound 1 µM",21.4%
same,"viability, T/C","second compound 0.1 µM, first compound 3.16 µM",37.8%
same,"viability, T/C","second compound 0.1 µM, first compound 10 µM",30.8%
same,"viability, T/C",[9],17.4%
same,"viability, T/C",[10],26.3%
same,"viability, T/C","second compound 0.316 µM, first compound 0.316 µM",22.2%
same,"viability, T/C","second compound 0.316 µM, first compound 1 µM",14.9%
same,"viability, T/C","second compound 0.316 µM, first compound 3.16 µM",18%
same,"viability, T/C","second compound 0.316 µM, first compound 10 µM",12.4%
same,"viability, T/C",[11],8.66%
same,"viability, T/C",[12],9.22%
same,"viability, T/C","second compound 1 µM, first compound 0.316 µM",8.61%
same,"viability, T/C","second compound 1 µM, first compound 1 µM",8.24%
same,"viability, T/C","second compound 1 µM, first compound 3.16 µM",5.56%
same,"viability, T/C","second compound 1 µM, first compound 10 µM",6.03%
CC(=O)c1c(C)c2cnc(Nc3ccc(N4CCNCC4)cn3)nc2n(C2CCCC2)c1=O + CC(Nc1ccc2c(c1)OCCn1cc(N3C(=O)OCC3C(F)F)nc1-2)C(N)=O,pIC50,second compound 0.00316 µM,7.16
same,pIC50,second compound 0.01 µM,7.12
same,pIC50,second compound 0.0316 µM,7.47
same,pIC50,second compound 0.1 µM,7.54
same,pIC50,second compound 0.316 µM,7.86
same,pIC50,second compound 1 µM,8.06
same,"viability, T/C","second compound 0.00316 µM, first compound 0.000316 µM",79.4%
same,"viability, T/C","second compound 0.00316 µM, first compound 0.001 µM",78.4%
same,"viability, T/C","second compound 0.00316 µM, first compound 0.00316 µM",74.4%
same,"viability, T/C","second compound 0.00316 µM, first compound 0.01 µM",73.2%
same,"viability, T/C",[1],142%
same,"viability, T/C",[2],31.9%
same,"viability, T/C","second compound 0.01 µM, first compound 0.000316 µM",124%
same,"viability, T/C","second compound 0.01 µM, first compound 0.001 µM",74.5%
same,"viability, T/C","second compound 0.01 µM, first compound 0.00316 µM",107%
same,"viability, T/C","second compound 0.01 µM, first compound 0.01 µM",56.3%
same,"viability, T/C",[3],58.8%
same,"viability, T/C",[4],48.4%
same,"viability, T/C","second compound 0.0316 µM, first compound 0.000316 µM",73.5%
same,"viability, T/C","second compound 0.0316 µM, first compound 0.001 µM",80%
same,"viability, T/C","second compound 0.0316 µM, first compound 0.00316 µM",84.3%
same,"viability, T/C","second compound 0.0316 µM, first compound 0.01 µM",62.5%
same,"viability, T/C",[5],53.4%
same,"viability, T/C",[6],31.4%
same,"viability, T/C","second compound 0.1 µM, first compound 0.000316 µM",85.1%
same,"viability, T/C","second compound 0.1 µM, first compound 0.001 µM",86%
same,"viability, T/C","second compound 0.1 µM, first compound 0.00316 µM",60.1%
same,"viability, T/C","second compound 0.1 µM, first compound 0.01 µM",105%
same,"viability, T/C",[7],46.8%
same,"viability, T/C",[8],37%
same,"viability, T/C","second compound 0.316 µM, first compound 0.000316 µM",51.7%
same,"viability, T/C","second compound 0.316 µM, first compound 0.001 µM",52.2%
same,"viability, T/C","second compound 0.316 µM, first compound 0.00316 µM",69.7%
same,"viability, T/C","second compound 0.316 µM, first compound 0.01 µM",52.4%
same,"viability, T/C",[9],38.3%
same,"viability, T/C",[10],23.3%
same,"viability, T/C","second compound 1 µM, first compound 0.000316 µM",68.8%
same,"viability, T/C","second compound 1 µM, first compound 0.001 µM",68.7%
same,"viability, T/C","second compound 1 µM, first compound 0.00316 µM",53.5%
same,"viability, T/C","second compound 1 µM, first compound 0.01 µM",55.6%
same,"viability, T/C",[11],29.7%
same,"viability, T/C",[12],27.2%
Cn1cnc2c(F)c(Nc3ccc(Br)cc3Cl)c(C(=O)NOCCO)cc21 + COc1c(OCCCN2CCOCC2)ccc2c3n(c(=NC(=O)c4cnc(N)nc4)nc12)CCN3,pIC50,second compound 0.00316 µM,6.31
same,pIC50,second compound 0.01 µM,7.08
same,pIC50,second compound 0.0316 µM,7.10
same,pIC50,second compound 0.1 µM,> 8.02
same,pIC50,second compound 0.316 µM,> 8.02
same,pIC50,second compound 1 µM,> 8.02
same,"viability, T/C","second compound 0.00316 µM, first compound 0.00949 µM",63.7%
same,"viability, T/C","second compound 0.00316 µM, first compound 0.03 µM",43.5%
same,"viability, T/C","second compound 0.00316 µM, first compound 0.0949 µM",70.4%
same,"viability, T/C","second compound 0.00316 µM, first compound 0.3 µM",69%
same,"viability, T/C","second compound 0.00316 µM, first compound 0.949 µM",34%
same,"viability, T/C","second compound 0.00316 µM, first compound 3 µM",32.1%
same,"viability, T/C","second compound 0.01 µM, first compound 0.00949 µM",62.3%
same,"viability, T/C","second compound 0.01 µM, first compound 0.03 µM",72.2%
same,"viability, T/C","second compound 0.01 µM, first compound 0.0949 µM",35.5%
same,"viability, T/C","second compound 0.01 µM, first compound 0.3 µM",43.7%
same,"viability, T/C","second compound 0.01 µM, first compound 0.949 µM",32.7%
same,"viability, T/C","second compound 0.01 µM, first compound 3 µM",22.9%
same,"viability, T/C","second compound 0.0316 µM, first compound 0.00949 µM",66.5%
same,"viability, T/C","second compound 0.0316 µM, first compound 0.03 µM",50.9%
same,"viability, T/C","second compound 0.0316 µM, first compound 0.0949 µM",56%
same,"viability, T/C","second compound 0.0316 µM, first compound 0.3 µM",39.5%
same,"viability, T/C","second compound 0.0316 µM, first compound 0.949 µM",25.8%
same,"viability, T/C","second compound 0.0316 µM, first compound 3 µM",18%
same,"viability, T/C","second compound 0.1 µM, first compound 0.00949 µM",48%
same,"viability, T/C","second compound 0.1 µM, first compound 0.03 µM",27.9%
same,"viability, T/C","second compound 0.1 µM, first compound 0.0949 µM",39.6%
same,"viability, T/C","second compound 0.1 µM, first compound 0.3 µM",29.3%
same,"viability, T/C","second compound 0.1 µM, first compound 0.949 µM",24.4%
same,"viability, T/C","second compound 0.1 µM, first compound 3 µM",29.3%
same,"viability, T/C","second compound 0.316 µM, first compound 0.00949 µM",19.6%
same,"viability, T/C","second compound 0.316 µM, first compound 0.03 µM",14.8%
same,"viability, T/C","second compound 0.316 µM, first compound 0.0949 µM",16.3%
same,"viability, T/C","second compound 0.316 µM, first compound 0.3 µM",11.3%
same,"viability, T/C","second compound 0.316 µM, first compound 0.949 µM",11.7%
same,"viability, T/C","second compound 0.316 µM, first compound 3 µM",6.47%
same,"viability, T/C","second compound 1 µM, first compound 0.00949 µM",15.4%
same,"viability, T/C","second compound 1 µM, first compound 0.03 µM",7.31%
same,"viability, T/C","second compound 1 µM, first compound 0.0949 µM",5.89%
same,"viability, T/C","second compound 1 µM, first compound 0.3 µM",4.21%
same,"viability, T/C","second compound 1 µM, first compound 0.949 µM",4.29%
same,"viability, T/C","second compound 1 µM, first compound 3 µM",1.75%
